Experimental data published in US12421257B2, “Compositions and methods for inhibiting group II intron RNA” (YALE UNIVERSITY, priority 2018, dated 2025).
Converted amounts (≈) assume the structure as drawn. Like-named read-outs stand apart in the source and are kept apart here.

What was measured:
[1] = system: COX1 aI5γ group II intron; test: Group II intron splicing in S. cerevisiae by RT-qPCR; assay type: cell-based, Saccharomyces cerevisiae; settings: qRT-PCR, four hours with compound
Protocol: A culture of S. cerevisiae was grown overnight with shaking in YPGE at 30° C. The saturated culture was then diluted and grown to mid-log phase in YPGE. Equal volumes of DMSO or compounds dissolved in DMSO were added to individual cultures (final concentrations of NED-2020: 64 μg/mL, APY-101: 32 μg/mL, APY-081: 32 μg/mL, APY-014: 64 μg/mL, Amphotericin B: 8 μg/mL), and incubated for four hours. Cells were harvested by centrifugation, washed with 500 μL ice-cold MilliQ water, centrifuged again, and snap-frozen in liquid nitrogen. Total RNA was isolated using E.Z.N.A. Yeast Purification Kit (Omega Bio-tek) according to manufacturer's procedures. The RNA was eluted in 50 μL of RNase/DNase-free water (ThermoFisher), followed by DNAse treatment with RQ1 DNase (Promega), for 1 hour at 37° C. Then it was mixed with 6 μl of 3M NaOAc and precipitated with 75% EtOH at −20° C. overnight. Then the RNA was reverse-transcribed with SuperScript III (ThermoFisher) following manufacturer's recommendations with 200 ng Random Hexamer Primers (ThermoFisher) and RNasin (ThermoFisher) in a 20 μl reaction. After reverse transcription, RNA was degraded by addition of 2N NaOH (2 μl) and incubation at 95° C. for 5 minutes. After cooling on ice for 5 minutes, 2 μl of 1M HCl and 2 μl of 3M NaOAc were added to the reaction mixture, and cDNA was precipitated with 75% EtOH at −20° C. for 30 minutes and resuspended in RNase/DNase-free water. The cDNA levels were quantified with real-time PCR using LightCycler 480 SYBR Green I (Roche) and a CFX384 Real-Time PCR Detection System (Bio-Rad) in triplicate. Relative levels of indicated RNA species from different conditions were normalized according to the ΔΔCT method via the following equation (Livak and Schmittgen, 2001, Methods, 25:402-408): ΔΔCT=[(CTCOX1total or unspliced−CTACT1or PGK1)test compound−(CTCOX1total or unspliced−CTACT1or PGK1)DMSO)].
The average and SEM of 2^-ΔΔCT is reported for each sample from three independent replicates. The following primer sets were used to amplify indicated targets: ACT1: […] (SEQ ID NO:1), […] (SEQ ID NO:2); PGK1: […] […]

HEK-293T cells = test: Cytotoxicity in HEK-293T cells (Cell Titer Glo); assay type: cell-based, human; settings: for IC50: Homo sapiens
C. parapsilosis = test: MIC determination against C. parapsilosis; assay type: cell-based, Candida parapsilosis; settings: Lodderomyces parapsilosis; RPMI-1640, 35° C. or 37° C., turbidity after 24 and 48 hours
Procedure, shortened: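 Broth microdilution in RPMI-1640 with C. parapsilosis at 0.5×10^3 to 2.5×10^3 CFU/mL; test compounds 0.25-128 μg/ml final, 1% DMSO. Plates incubated at 35° C or 37° C, turbidity read visually at 24 and 48 h. MIC = lowest concentration without visible growth; triplicates.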

[2] = system: S. cerevisiae wild-type (NP40-36a) and mtDNA intronless (XPM46) strains; test: S. cerevisiae growth assay, wild-type vs mtDNA intronless strain; assay type: cell-based, Saccharomyces cerevisiae; settings: YPGE medium, 64 or 128 μg/mL
Protocol: Cultures of S. cerevisiae (Wild-type: NP40-36a, mtDNA intronless: XPM46 (Perez-Martinez et al., 2003, EMBO J, 22:5951-5961) were grown overnight with shaking to mid-log phase in YPGE at 30° C. Equal numbers of cells were harvested and serially-diluted 1:5. Cells were then plated on YPD or YPGE media containing DMSO or Intronistat A dissolved in DMSO (final concentration: 64 or 128 μg/mL). Plates were grown for one day (YPD plates), two days (YPGE DMSO plate), or 18 days (YPGE 18 (Intronistat A) plate) at 30° C. Experiment was replicated twice to ensure reproducibility of growth phenotype.

[3] = cytotoxicity, 24 hours with compound, read-out: IC50 HEK-293
[4] = 72 hours growth in the presence of compounds, read-out: IC50 HEK-293T viability after 72-hour incubation

Row | Structure (SMILES) | MIC (C. parapsilosis) | Splicing of COX1 aI5γ group II intron in S. cerevisiae in vivo (in words) [1] | IC50 (HEK-293T cells; [3]) | IC50 (HEK-293T cells; [4]) | Toxicity in human cells (in words) (HEK-293T cells; 24 hours incubation) | Growth of intronless vs wild-type strain in presence of compound (in words) [2]
1 | O=C1/C(=C/c2cc(O)cc(O)c2)Oc2cc(O)cc(O)c21 [APY-014, (Z)-2-(3,5-Dihydroxybenzylidene)-4,6-dihydroxybenzofuran-3(2H)-one] | – | inactive | > 64 µg/mL | – | – | –
2 | Cc1ccncc1-c1ccc2oc(C(=O)c3cc(O)c(O)c(O)c3)cc2c1 [APY-081, 5-{[5-(4-Methylpyridin-3-yl)-1-benzofuran-2-yl]carbonyl}benzene-1,2,3-triol] | 4 to 8 µg/mL (≈ 11.1 to 22.1 µM) | inhibit splicing | > 128 µg/mL | 0.79 ± 0.09 µg/mL | – | –
3 | CC(=O)c1ccc(-c2ccc3oc(C(=O)c4cc(O)c(O)c(O)c4)cc3c2)cc1 [APY-101, 1-(4-{2-[(3,4,5-Trihydroxyphenyl)carbonyl]-1-benzofuran-5-yl}phenyl)ethan-1-one] | 2 to 4 µg/mL (≈ 5.15 to 10.3 µM) | inhibit splicing | > 128 µg/mL | 1.3 ± 0.1 µg/mL | did not show toxicity | intronless strain is much more resistant

Second part, led by results:

Row | MIC (C. parapsilosis) | Structure (SMILES) | Splicing of COX1 aI5γ group II intron in S. cerevisiae in vivo (in words) [1] | IC50 (HEK-293T cells; [3]) | IC50 (HEK-293T cells; [4]) | Toxicity in human cells (in words) (HEK-293T cells; 24 hours incubation) | Growth of intronless vs wild-type strain in presence of compound (in words) [2]
4 | 2 to 4 µg/mL (≈ 5.31 to 10.6 µM) | O=C(c1cc(O)c(O)c(O)c1)c1cc2cc(-c3ccc(CO)cc3)ccc2o1 [APY-084, 5-({5-[4-(Hydroxymethyl)phenyl]-1-benzofuran-2-yl}carbonyl)benzene-1,2,3-triol] | – | 1.1 ± 0.1 µg/mL | 1 ± 0.04 µg/mL | – | –
5 | 4 to 8 µg/mL | Br.CCN(CC)Cc1ccc(-c2ccc3oc(C(=O)c4cc(O)c(O)c(O)c4)cc3c2)cc1 [APY-090, 5-[(5-{4-[(Diethylamino)methyl]phenyl}-1-benzofuran-2-yl)carbonyl]benzene-1,2,3-triol hydrobromide] | – | 1.7 ± 0.6 µg/mL | – | – | –
6 | 32 to 64 µg/mL (≈ 64.4 to 129 µM) | CCCCNS(=O)(=O)c1ccc(-c2ccc(-c3nc(-c4cc(O)c(O)c(O)c4)cs3)cc2)cc1 [APY-093, N-Butyl-4-{4-[4-(3,4,5-trihydroxyphenyl)-1,3-thiazol-2-yl]phenyl}benzene-1-sulfonamide] | – | 7.2 ± 1.5 µg/mL | – | – | –
